Data taken from publication PMC7031696 (Cell chemical biology, 2019).

Tested on: 3D7-MR4 trophozoite parasite-infected RBCs
Assay: Metabolomic profiling (hydrophilic metabolite changes, UHPLC-MS)
Assay type: cell-based, Plasmodium falciparum

## CC(C)(C)NCc1cc(Nc2ccnc3cc(Cl)ccc23)c2c(c1O)CCCC2 [Naphtoquine, Naphthoquine, reference compound]
Metabolite adenosine, log2 fold change
  Log2(fold changes) adenosine: 0.0000
Metabolite alanine/sarcosine, log2 fold change
  Log2(fold changes) alanine/sarcosine: -0.0537
Metabolite anthranilate, log2 fold change
  Log2(fold changes) anthranilate: 0.0000
Metabolite arginine, log2 fold change
  Log2(fold changes) arginine: 0.0159
Metabolite asparagine, log2 fold change
  Log2(fold changes) asparagine: 0.0139
Metabolite aspartate, log2 fold change
  Log2(fold changes) aspartate: -0.0605
Metabolite biotin, log2 fold change
  Log2(fold changes) biotin: 0.0000
Metabolite cCMP, log2 fold change
  Log2(fold changes) cCMP: 0.0520
Metabolite cGMP, log2 fold change
  Log2(fold changes) cGMP: 0.0000
Metabolite carnitine, log2 fold change
  Log2(fold changes) carnitine: 0.0000
Metabolite citrate/isocitrate, log2 fold change
  Log2(fold changes) citrate/isocitrate: -0.0500
Metabolite coenzyme A
  Log2(fold change) of coenzyme A: -0.1736
Metabolite cyclic-AMP
  Log2(fold change) of cyclic-AMP: -3.95e-5
Metabolite cytidine
  Log2(fold change) of cytidine: 0.0481
Metabolite dAMP
  Log2(fold change) of dAMP: -0.6907
Metabolite dATP
  Log2(fold change) of dATP: 0.1926
Metabolite dCDP
  Log2(fold change) of dCDP: -0.7164
Metabolite dCMP
  Log2(fold change) of dCMP: -0.1991
Metabolite dCTP
  Log2(fold change) of dCTP: -0.0054
Metabolite dGDP/ADP
  Log2(fold change) of dGDP/ADP: -0.3882
Metabolite dGMP/AMP
  Log2(fold change) of dGMP/AMP: -0.6721
Metabolite dGTP/ATP
  Log2(fold change) of dGTP/ATP: 0.1282
Metabolite dTDP
  Log2(fold change) of dTDP: -0.6082
Metabolite dTMP
  Log2(fold change) of dTMP: -0.8354
Metabolite dTTP
  Log2(fold change) of dTTP: 0.1193
Metabolite dUMP
  Log2(fold change) of dUMP: 0.0000
Metabolite dUTP
  Log2(fold change) of dUTP: 0.0000
Metabolite deoxyguanosine
  Log2(fold change) of deoxyguanosine: 0.0000
Metabolite deoxyinosine
  Log2(fold change) of deoxyinosine: 0.0000
Metabolite deoxyribose-phosphate
  Log2(fold change) of deoxyribose-phosphate: 0.0000
Metabolite deoxyuridine
  Log2(fold change) of deoxyuridine: 0.0000
Metabolite dihydroorotate
  Log2(fold change) of dihydroorotate: -0.0270
Metabolite folate
  Log2(fold change) of folate: -0.0482
Metabolite fructose-1-6-bisphosphate
  Log2(fold change) of fructose-1-6-bisphosphate: 0.2760
Metabolite fructose-6-phosphate
  Log2(fold change) of fructose-6-phosphate: 0.2447
Metabolite fumarate
  Log2(fold change) of fumarate: 0.1140
Metabolite glucono-lactone
  Log2(fold change) of glucono-lactone: 0.0480
Metabolite glucose-1/6-phosphate
  Log2(fold change) of glucose-1/6-phosphate: 0.0000
Metabolite glutamate
  Log2(fold change) of glutamate: 0.0377
Metabolite glutamine
  Log2(fold change) of glutamine: 0.0892
Metabolite glutathione
  Log2(fold change) of glutathione: -0.0422
Metabolite glutathione disulfide
  Log2(fold change) glutathione disulfide: -0.0039
Metabolite glycerate
  Log2(fold change) glycerate: 0.0000
Metabolite guanine
  Log2(fold change) guanine: -1.1501
Metabolite guanosine
  Log2(fold change) guanosine: 0.0000
Metabolite histidine
  Log2(fold change) histidine: 0.1439
Metabolite homocysteic acid
  Log2(fold change) homocysteic acid: 0.0000
Metabolite hydroxyphenylpyruvate
  Log2(fold change) hydroxyphenylpyruvate: 0.0000
Metabolite hydroxyproline/Aminolevulinate
  Log2(fold change) hydroxyproline/Aminolevulinate: 0.1631
Metabolite hypoxanthine
  Log2(fold change) hypoxanthine: 0.0000
Metabolite indole
  Log2(fold change) indole: 0.0000
Metabolite inosine
  Log2(fold change) inosine: -0.4099
Metabolite isoleucine
  Log2(fold change) isoleucine: 0.1976
Metabolite lactate
  Log2(fold change) lactate: -0.2436
Metabolite leucine
  Log2(fold change) leucine: 0.1923
Metabolite lysine
  Log2(fold change) lysine: 0.0742
Metabolite malate
  Log2(fold change) malate: 0.0333
Metabolite maleic acid
  Log2(fold change) maleic acid: 0.0474
Metabolite methionine
  Log2(fold change) methionine: 0.2831
Metabolite myo-inositol
  Log2(fold change) myo-inositol: -0.3601
Metabolite nicotinamide mononucleotide
  Log2(fold change) nicotinamide mononucleotide: 0.0144
Metabolite nicotinate
  Log2(fold change) nicotinate: -0.5500
Metabolite ornithine
  Log2(fold change) ornithine: 0.0000
Metabolite orotate
  Log2(fold change) orotate: -0.1816
Metabolite orotidine-5'-phosphate
  Log2(fold change) orotidine-5'-phosphate: -0.1754
Metabolite oxaloacetate
  Log2(fold change) oxaloacetate: 0.0000
Metabolite p-aminobenzoate
  Log2(fold change) p-aminobenzoate: 0.0000
Metabolite p-hydroxybenzoate
  Log2(fold change) p-hydroxybenzoate: 0.0000
Metabolite pantothenate
  Log2(fold change) pantothenate: 0.0000
Metabolite phenylalanine
  Log2(fold change) phenylalanine: 0.1566
Metabolite phenylpyruvate
  Log2(fold change) phenylpyruvate: 0.0000
Metabolite phosphoenolpyruvate
  Log2(fold change) phosphoenolpyruvate: 0.1381
Metabolite prephenate
  Log2(fold change) prephenate: 0.0000
Metabolite proline
  Log2(fold change) proline: -0.0640
Metabolite pyridoxine
  Log2(fold change) pyridoxine: -0.2953
Metabolite pyruvate
  Log2(fold change) pyruvate: -0.0949
Metabolite riboflavin
  Log2(fold change) riboflavin: 0.0784
Metabolite ribose
  Log2(fold change) ribose: 0.2671
Metabolite ribose-phosphate
  Log2(fold change) ribose-phosphate: 0.0683
Metabolite ribulose-5-phosphate
  Log2(fold change) ribulose-5-phosphate: 0.2669
Metabolite serine
  Log2(fold change) serine: 0.0398
Metabolite sn-glycerol-3-phosphate
  Log2(fold change) sn-glycerol-3-phosphate: 0.2727
Metabolite succinate/Methylmalonic acid
  Log2(fold change) succinate/Methylmalonic acid: 0.1812
Metabolite succinyl-CoA/methylmalonyl-CoA
  Log2(fold change) succinyl-CoA/methylmalonyl-CoA: 0.0000
Metabolite taurine
  Log2(fold change) taurine: 0.1018
Metabolite thiamine
  Log2(fold change) thiamine: -0.0320
Metabolite threonine/homoserine
  Log2(fold change) threonine/homoserine: -0.0093
Metabolite thymidine
  Log2(fold change) thymidine: 0.0000
Metabolite thymine, log2 fold change
  Log2(fold changes) thymine: 0.0000
Metabolite trehalose-6-Phosphate, log2 fold change
  Log2(fold changes) trehalose-6-Phosphate: 0.0000
Metabolite tryptophan, log2 fold change
  Log2(fold changes) tryptophan: 0.2627
Metabolite tyrosine, log2 fold change
  Log2(fold changes) tyrosine: 0.1902
Metabolite uridine, log2 fold change
  Log2(fold changes) uridine: 0.0000
Metabolite valine, log2 fold change
  Log2(fold changes) valine: 0.0658
Metabolite xanthine, log2 fold change
  Log2(fold changes) xanthine: -0.8439
Metabolite xanthosine-5-phosphate, log2 fold change
  Log2(fold changes) xanthosine-5-phosphate: 0.0356
Metabolite xanthosine, log2 fold change
  Log2(fold changes) xanthosine: 0.2527
Metabolite xylose, log2 fold change
  Log2(fold changes) xylose: 0.0000
